From US11377442B2, “Small molecule agonists and antagonists of NR2F6 activity” (ZANDER THERAPEUTICS, INC., priority 2016, dated 2022)
Where two headings read alike, the source gives them in different places. One block for each compound: values may come before it.

Tests used:
Assay type in all cases: cell-based
NR2F6 = biological target: T1, NR2F6 (Homo sapiens, UniProt P10588); assay: NR2F6 agonist screening, Firefly signal cmpd/DMSO; settings: for F4, Firefly/Renilla for S/B(F4) > 3 / Firefly, F4/pGL4 for S/B(F4) > 3 / Firefly, F4, 10% FBS, cmpd/DMSO (mean): 10% FBS
T1 construct: expressed in transfected cells; also transient transfection
T1 sequence (P10588 1-404): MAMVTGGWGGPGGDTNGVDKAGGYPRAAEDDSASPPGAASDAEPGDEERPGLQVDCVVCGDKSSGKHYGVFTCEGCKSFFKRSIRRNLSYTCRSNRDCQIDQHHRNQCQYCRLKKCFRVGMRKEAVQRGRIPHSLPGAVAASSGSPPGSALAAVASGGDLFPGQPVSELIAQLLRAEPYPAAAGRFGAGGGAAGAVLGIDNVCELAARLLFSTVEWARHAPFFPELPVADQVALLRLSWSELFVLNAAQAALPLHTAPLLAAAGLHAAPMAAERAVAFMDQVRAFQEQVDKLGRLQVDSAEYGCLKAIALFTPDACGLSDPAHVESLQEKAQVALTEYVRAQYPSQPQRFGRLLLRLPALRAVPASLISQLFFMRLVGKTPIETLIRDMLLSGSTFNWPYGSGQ

Renilla = Renilla signal in NR2F6 agonist screening, cmpd/DMSO; settings: Renilla, F4
HEK293 pGL4 = assay: Firefly_pGL signal, cmpd/DMSO (pGL4 control cells); settings: Homo sapiens
NR2F6 LBD = biological target: T2, NR2F6 LBD (Homo sapiens, UniProt P10588); assay: NR2F6 LBD transient transfection; settings: LBD
T2 construct: expressed in transfected cells
T2 sequence (P10588 165-393 limits assumed): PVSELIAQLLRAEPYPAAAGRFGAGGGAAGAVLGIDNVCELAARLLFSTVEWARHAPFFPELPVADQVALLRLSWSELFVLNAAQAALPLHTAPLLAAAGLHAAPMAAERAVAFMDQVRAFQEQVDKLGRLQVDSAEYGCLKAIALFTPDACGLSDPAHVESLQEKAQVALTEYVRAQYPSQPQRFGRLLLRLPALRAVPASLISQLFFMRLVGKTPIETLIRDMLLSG
Procedure: FIGS. 27A and 27B show NR2F6 and LBD transient transfection, respectively, for Compound D28. Higher concentrations were excluded due to lower signal (tox effect). FIGS. 27C and 27D show NR2F6 and LBD transient transfection at different concentrations for different compounds. 9 compounds were tested on LBD transfected cells (40, 10, 2 and 0.5 μM, 4 replicates). FIGS. 27E and 27F show toxicity of Compound D28. 9 compounds were tested for cytotoxicity on LBD transfected cells (40, 10, 2 and 0.5 μM, 4 replicates). […] Cytotoxicity normalized to DMSO is shown in FIG. 27F (0% cytotoxicity corresponds to DMSO signal, 100%—zero signal).
FIGS. 34A and 34B show NR2F6 LBD transient transfection for Compound E21. 9 compounds were tested on LBD transfected cells (40, 10, 2 and 0.5 μM, 4 replicates). FIGS. 34C and 34D show NR2F6 and LBD transient transfection at different concentrations for different compounds. 9 compounds were tested on LBD transfected cells (40, 10, 2 and 0.5 μM, 4 replicates). […] Cytotoxicity normalized to DMSO is shown in FIG. 34D (0% cytotoxicity corresponds to DMSO signal, 100%—zero signal). All compounds were tested at 5, 10, 25 and 50 uM in duplicates. Dog PBMC (1×10^6 cells/mL) were activated by 10 ng/mL PMA+500 ng/mL ionomycin. Data were normalized to controls with (100%)/without (0%) PMA+ionomycin activation.
FIGS. 39A and 39B show NR2F6 LBD transient transfection for Compound F1. 9 compounds were tested on LBD transfected cells (40, 10, 2 and 0.5 μM, 4 replicates). FIGS. 39C and 39D show toxicity of NR2F6 LBD transient transfection. 9 compounds were tested for cytotoxicity on LBD transfected cells (40, 10, 2 and 0.5 μM, 4 replicates). Tox effect causes lower signal compared to DMSO. Cytotoxicity normalized to DMSO is shown in FIG. 39D (0% cytotoxicity corresponds to DMSO signal, 100%—zero signal).

[1] = read-out: Renilla, F4, cmpd/DMSO (mean)
[2] = 1% FBS, read-out: Renilla, F4, 1% FBS, cmpd/DMSO (mean)
[3] = 10% FBS, read-out: Renilla, F4, 10% FBS, cmpd/DMSO (mean)
[4] = HEK293, 0.5 uM, pGL4, read-out: Firefly pGL4, cmpd/DMSO (mean)
[5] = HEK293, 2 uM, pGL4, read-out: Firefly pGL4, cmpd/DMSO (mean)
[6] = HEK293, 10 uM, pGL4, read-out: Firefly pGL4, cmpd/DMSO (mean)
[7] = HEK293, 40 uM, pGL4, read-out: Firefly pGL4, cmpd/DMSO (mean)
[8] = HEK293, pGL4, 1% FBS, 0.5 uM, read-out: Firefly, pGL4, 1% FBS, cmpd/DMSO (mean)
[9] = HEK293, pGL4, 1% FBS, 2 uM, read-out: Firefly, pGL4, 1% FBS, cmpd/DMSO (mean)
[10] = HEK293, pGL4, 1% FBS, 10 uM, read-out: Firefly, pGL4, 1% FBS, cmpd/DMSO (mean)
[11] = HEK293, pGL4, 1% FBS, 40 uM, read-out: Firefly, pGL4, 1% FBS, cmpd/DMSO (mean)
[12] = HEK293, pGL4, 10% FBS, 0.5 uM, read-out: Firefly, pGL4, 10% FBS, cmpd/DMSO (mean)
[13] = HEK293, pGL4, 10% FBS, 2 uM, read-out: Firefly, pGL4, 10% FBS, cmpd/DMSO (mean)
[14] = HEK293, pGL4, 10% FBS, 10 uM, read-out: Firefly, pGL4, 10% FBS, cmpd/DMSO (mean)
[15] = HEK293, pGL4, 10% FBS, 40 uM, read-out: Firefly, pGL4, 10% FBS, cmpd/DMSO (mean)

Firefly F4, cmpd/DMSO (mean) (NR2F6; 0.5 uM): 1.3
Firefly F4, cmpd/DMSO (mean) (NR2F6; 2 uM): 1.6
Firefly F4, cmpd/DMSO (mean) (NR2F6; 10 uM): 2.8
Firefly F4, cmpd/DMSO (mean) (NR2F6; 40 uM): 3.3
F4, Firefly/Renilla for S/B(F4) > 3 (NR2F6; 40 uM): 3.2
Firefly, F4/pGL4 for S/B(F4) > 3 (NR2F6; 40 uM): 2.3
Firefly, F4, 1% FBS, cmpd/DMSO (mean) (NR2F6; 0.5 uM): 1.4
Firefly, F4, 1% FBS, cmpd/DMSO (mean) (NR2F6; 2 uM): 1.1
Firefly, F4, 1% FBS, cmpd/DMSO (mean) (NR2F6; 10 uM): 2.8
Firefly, F4, 1% FBS, cmpd/DMSO (mean) (NR2F6; 40 uM): 2.5
Firefly, F4, 10% FBS, cmpd/DMSO (mean) (NR2F6; 0.5 uM): 1.7
Firefly, F4, 10% FBS, cmpd/DMSO (mean) (NR2F6; 2 uM): 1.5
Firefly, F4, 10% FBS, cmpd/DMSO (mean) (NR2F6; 10 uM): 2.1
Firefly, F4, 10% FBS, cmpd/DMSO (mean) (NR2F6; 40 uM): 5.8
Firefly LBD, cmpd/DMSO (mean) (NR2F6 LBD; 0.5 uM): 1.1
Firefly LBD, cmpd/DMSO (mean) (NR2F6 LBD; 2 uM): 1.3
Firefly LBD, cmpd/DMSO (mean) (NR2F6 LBD; 10 uM): 2.2
Firefly LBD, cmpd/DMSO (mean) (NR2F6 LBD; 40 uM): 2.5
SMILES: CCC(C)N[C@H]1CS(=O)(=O)C[C@@H]1S(=O)(=O)c1ccc(C)cc1 (stereo partly drawn) [Compound D113]
fold induction at 0.5 µM (Renilla; [1]): 1.1
fold induction at 2 µM (Renilla; [1]): 1
fold induction at 10 µM (Renilla; [1]): 1.3
fold induction at 40 µM (Renilla; [1]): 1.4
fold induction at 0.5 µM (Renilla; [2]): 1.3
fold induction at 2 µM (Renilla; [2]): 1.2
fold induction at 10 µM (Renilla; [2]): 1.6
fold induction at 40 µM (Renilla; [2]): 1.8
fold induction at 0.5 µM (Renilla; [3]): 1
fold induction at 2 µM (Renilla; [3]): 1
fold induction at 10 µM (Renilla; [3]): 1.2
fold induction at 40 µM (Renilla; [3]): 1.8
fold induction at 0.5 µM (HEK293 pGL4; [4]): 1.2
fold induction at 2 µM (HEK293 pGL4; [5]): 1.1
fold induction at 10 µM (HEK293 pGL4; [6]): 2.6
fold induction at 40 µM (HEK293 pGL4; [7]): 2
fold induction at 0.5 µM (HEK293 pGL4; [8]): 1
fold induction at 2 µM (HEK293 pGL4; [9]): 1.2
fold induction at 10 µM (HEK293 pGL4; [10]): 1.8
fold induction at 40 µM (HEK293 pGL4; [11]): 1.6
fold induction at 0.5 µM (HEK293 pGL4; [12]): 1.1
fold induction at 2 µM (HEK293 pGL4; [13]): 1.2
fold induction at 10 µM (HEK293 pGL4; [14]): 1.7
fold induction at 40 µM (HEK293 pGL4; [15]): 2.5

SMILES: O=S1(=O)C[C@H](NC2CCCC2)[C@@H](S(=O)(=O)c2ccc(F)cc2)C1 [Compound D114]
Firefly F4, cmpd/DMSO (mean) (NR2F6; 0.5 uM): 1.6
Firefly F4, cmpd/DMSO (mean) (NR2F6; 2 uM): 1.6
Firefly F4, cmpd/DMSO (mean) (NR2F6; 10 uM): 2.4
Firefly F4, cmpd/DMSO (mean) (NR2F6; 40 uM): 3.6
F4, Firefly/Renilla for S/B(F4) > 3 (NR2F6; 40 uM): 2.1
Firefly, F4/pGL4 for S/B(F4) > 3 (NR2F6; 40 uM): 1.6
Firefly, F4, 1% FBS, cmpd/DMSO (mean) (NR2F6; 0.5 uM): 1.3
Firefly, F4, 1% FBS, cmpd/DMSO (mean) (NR2F6; 2 uM): 1.0
Firefly, F4, 1% FBS, cmpd/DMSO (mean) (NR2F6; 10 uM): 1.8
Firefly, F4, 1% FBS, cmpd/DMSO (mean) (NR2F6; 40 uM): 2.2
Firefly, F4, 10% FBS, cmpd/DMSO (mean) (NR2F6; 0.5 uM): 1.2
Firefly, F4, 10% FBS, cmpd/DMSO (mean) (NR2F6; 2 uM): 1.1
Firefly, F4, 10% FBS, cmpd/DMSO (mean) (NR2F6; 10 uM): 1.7
Firefly, F4, 10% FBS, cmpd/DMSO (mean) (NR2F6; 40 uM): 3.2
fold induction at 0.5 µM (Renilla; [1]): 1
fold induction at 2 µM (Renilla; [1]): 1.1
fold induction at 10 µM (Renilla; [1]): 1.2
fold induction at 40 µM (Renilla; [1]): 1.3
fold induction at 0.5 µM (Renilla; [2]): 1.1
fold induction at 2 µM (Renilla; [2]): 1.2
fold induction at 10 µM (Renilla; [2]): 1.7
fold induction at 40 µM (Renilla; [2]): 1.8
fold induction at 0.5 µM (Renilla; [3]): 0.9
fold induction at 2 µM (Renilla; [3]): 1
fold induction at 10 µM (Renilla; [3]): 1.1
fold induction at 40 µM (Renilla; [3]): 1.5
fold induction at 0.5 µM (HEK293 pGL4; [4]): 1.1
fold induction at 2 µM (HEK293 pGL4; [5]): 1.3
fold induction at 10 µM (HEK293 pGL4; [6]): 2
fold induction at 40 µM (HEK293 pGL4; [7]): 2
fold induction at 0.5 µM (HEK293 pGL4; [8]): 1.1
fold induction at 2 µM (HEK293 pGL4; [9]): 1.3
fold induction at 10 µM (HEK293 pGL4; [10]): 1.7
fold induction at 40 µM (HEK293 pGL4; [11]): 1.5
fold induction at 0.5 µM (HEK293 pGL4; [12]): 1.3
fold induction at 2 µM (HEK293 pGL4; [13]): 1.3
fold induction at 10 µM (HEK293 pGL4; [14]): 1.5
fold induction at 40 µM (HEK293 pGL4; [15]): 2
Firefly LBD, cmpd/DMSO (mean) (NR2F6 LBD; 0.5 uM): 1.1
Firefly LBD, cmpd/DMSO (mean) (NR2F6 LBD; 2 uM): 1.3
Firefly LBD, cmpd/DMSO (mean) (NR2F6 LBD; 10 uM): 1.9
Firefly LBD, cmpd/DMSO (mean) (NR2F6 LBD; 40 uM): 2.2
